From US11547681B2, “N-acylethanolamide derivatives and uses thereof” (ELIEM THERAPEUTICS, INC., priority 2016, dated 2023)
Each block holds one compound with its values, some of them ahead of it.

What was measured:
in vitro [1] = conditions: both, human
Outline: (§1)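 Test article (1 μM final) pre-equilibrated with intestinal S9 at 37 °C, then reaction started with cofactor cocktail; sampled at 0, 10, 20, 30 and 60 min and quenched in acidified acetonitrile. Prodrug and released PEA quantified by LC-MS/MS; half-life from single-phase exponential fit of percent remaining versus time 0.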

in vitro [2] = conditions: male, Sprague-Dawley, rat
Outline: as §1

in vitro [3] = conditions: male, Beagle, dog
Outline: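 Half-lives are based on fitting compound loss over 0, 10, 20, 30 and 60 min to a single exponential, with amounts expressed against the zero-time sample. Reactions hold 1 μM substrate in S9 at 37 °C, start on cofactor addition, and are stopped with cold acetonitrile containing formic acid.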

[4] = s9, CLint (mL/min/mg protein), calculated value in parentheses
[5] = s9, Half-life (min), calculated half-life in parentheses

Measured concentration of PEA (analyte) (in vitro [1]; 0 min, 1 μM): 0 µM | Measured concentration of PEA (analyte) (in vitro [1]; 10 min, 1 μM): 0.17 µM | Measured concentration of PEA (analyte) (in vitro [1]; 20 min, 1 μM): 0.29 µM | Measured concentration of PEA (analyte) (in vitro [1]; 30 min, 1 μM): 0.33 µM | Measured concentration of PEA (analyte) (in vitro [1]; 60 min, 1 μM): 0.32 µM | % Remaining of Initial (in vitro [1]; s9, 0 h, 1 μM): 100% | % Remaining of Initial (in vitro [1]; s9, 10 min, 1 μM): 3.2% | % Remaining of Initial (in vitro [1]; s9, 20 min, 1 μM): <1.0% | % Remaining of Initial (in vitro [1]; s9, 0.5 h, 1 μM): <1.0% | % Remaining of Initial (in vitro [1]; s9, 1 h, 1 μM): <1.0% | microsomal CLint at 1 μM (in vitro [1]; s9, CLint): > 69.3 µL/min/mg | half-life at 1 μM (in vitro [1]; s9, Half-life): < 0.167 h | Measured concentration of PEA (analyte) (in vitro [2]; 0 min, 1 μM): 0 µM | Measured concentration of PEA (analyte) (in vitro [2]; 10 min, 1 μM): 0.20 µM | Measured concentration of PEA (analyte) (in vitro [2]; 20 min, 1 μM): 0.28 µM | Measured concentration of PEA (analyte) (in vitro [2]; 30 min, 1 μM): 0.34 µM | Measured concentration of PEA (analyte) (in vitro [2]; 60 min, 1 μM): 0.38 µM | % Remaining of Initial (in vitro [2]; s9, 0 h, 1 μM): 100% | % Remaining of Initial (in vitro [2]; s9, 10 min, 1 μM): <1.0% | % Remaining of Initial (in vitro [2]; s9, 20 min, 1 μM): <1.0% | % Remaining of Initial (in vitro [2]; s9, 0.5 h, 1 μM): <1.0% | % Remaining of Initial (in vitro [2]; s9, 1 h, 1 μM): <1.0% | microsomal CLint at 1 μM (in vitro [2]; s9, CLint): > 691 µL/min/mg | half-life at 1 μM (in vitro [2]; s9, Half-life): < 0.0167 h | Measured concentration of PEA (analyte) (in vitro [3]; 0 min, 1 μM): 0.042 µM | Measured concentration of PEA (analyte) (in vitro [3]; 10 min, 1 μM): 0.50 µM | Measured concentration of PEA (analyte) (in vitro [3]; 20 min, 1 μM): 0.57 µM | Measured concentration of PEA (analyte) (in vitro [3]; 30 min, 1 μM): 0.54 µM | Measured concentration of PEA (analyte) (in vitro [3]; 60 min, 1 μM): 0.68 µM | % Remaining of Initial (in vitro [3]; s9, 0 h, 1 μM): 100% | % Remaining of Initial (in vitro [3]; s9, 10 min, 1 μM): 1.7% | % Remaining of Initial (in vitro [3]; s9, 20 min, 1 μM): <1.0% | % Remaining of Initial (in vitro [3]; s9, 0.5 h, 1 μM): <1.0% | % Remaining of Initial (in vitro [3]; s9, 1 h, 1 μM): <1.0% | microsomal CLint at 1 μM (in vitro [3]; s9, CLint): > 69.3 µL/min/mg | half-life at 1 μM (in vitro [3]; s9, Half-life): < 0.167 h
SMILES: CCCCCCCCCCCCCCCC(=O)NCCOC(=O)CCC(=O)OC(COC(=O)CCC)COC(=O)CCC [Compound I-16]

Concentration (μM) of analyte PEA, 0 min (in vitro [1]; 0 min, 1 μM): 0.0089 µM | Concentration (μM) of analyte PEA, 10 min (in vitro [1]; 10 min, 1 μM): 0.023 µM | Concentration (μM) of analyte PEA, 20 min (in vitro [1]; 20 min, 1 μM): 0.043 µM | Concentration (μM) of analyte PEA, 30 min (in vitro [1]; 30 min, 1 μM): 0.056 µM | Concentration (μM) of analyte PEA, 60 min (in vitro [1]; 60 min, 1 μM): 0.072 µM | % Remaining of Initial (n = 1), 0 min (in vitro [1]; s9, 0 h, 1 μM): 100% | % Remaining of Initial (n = 1), 10 min (in vitro [1]; s9, 10 min, 1 μM): 109% | % Remaining of Initial (n = 1), 20 min (in vitro [1]; s9, 20 min, 1 μM): 103% | % Remaining of Initial (n = 1), 30 min (in vitro [1]; s9, 0.5 h, 1 μM): 82% | % Remaining of Initial (n = 1), 60 min (in vitro [1]; s9, 1 h, 1 μM): 70% | microsomal CLint at 1 μM (in vitro [1]; s9, CLint (mL/min/mg protein)): < 11.6 µL/min/mg | microsomal CLint at 1 μM (in vitro [1]; [4]): 6.82 µL/min/mg | half-life at 1 μM (in vitro [1]; s9, Half-life (min)): > 1 h | half-life at 1 μM (in vitro [1]; [5]): 1.7 h | Concentration (μM) of analyte PEA, 0 min (in vitro [2]; 0 min, 1 μM): 0.069 µM | Concentration (μM) of analyte PEA, 10 min (in vitro [2]; 10 min, 1 μM): 0.088 µM | Concentration (μM) of analyte PEA, 20 min (in vitro [2]; 20 min, 1 μM): 0.094 µM | Concentration (μM) of analyte PEA, 30 min (in vitro [2]; 30 min, 1 μM): 0.10 µM | Concentration (μM) of analyte PEA, 60 min (in vitro [2]; 60 min, 1 μM): 0.11 µM | % Remaining of Initial (n = 1), 0 min (in vitro [2]; s9, 0 h, 1 μM): 100% | % Remaining of Initial (n = 1), 10 min (in vitro [2]; s9, 10 min, 1 μM): 78% | % Remaining of Initial (n = 1), 20 min (in vitro [2]; s9, 20 min, 1 μM): 92% | % Remaining of Initial (n = 1), 30 min (in vitro [2]; s9, 0.5 h, 1 μM): 79% | % Remaining of Initial (n = 1), 60 min (in vitro [2]; s9, 1 h, 1 μM): 59% | microsomal CLint at 1 μM (in vitro [2]; s9, CLint (mL/min/mg protein)): < 11.6 µL/min/mg | microsomal CLint at 1 μM (in vitro [2]; [4]): 7.65 µL/min/mg | half-life at 1 μM (in vitro [2]; s9, Half-life (min)): > 1 h | half-life at 1 μM (in vitro [2]; [5]): 1.52 h | Concentration (μM) of analyte PEA, 0 min (in vitro [3]; 0 min, 1 μM): 0.26 µM | Concentration (μM) of analyte PEA, 10 min (in vitro [3]; 10 min, 1 μM): 0.42 µM | Concentration (μM) of analyte PEA, 20 min (in vitro [3]; 20 min, 1 μM): 0.38 µM | Concentration (μM) of analyte PEA, 30 min (in vitro [3]; 30 min, 1 μM): 0.35 µM | Concentration (μM) of analyte PEA, 60 min (in vitro [3]; 60 min, 1 μM): 0.36 µM | % Remaining of Initial (n = 1), 0 min (in vitro [3]; s9, 0 h, 1 μM): 100% | % Remaining of Initial (n = 1), 10 min (in vitro [3]; s9, 10 min, 1 μM): 54% | % Remaining of Initial (n = 1), 20 min (in vitro [3]; s9, 20 min, 1 μM): 53% | % Remaining of Initial (n = 1), 30 min (in vitro [3]; s9, 0.5 h, 1 μM): 45% | % Remaining of Initial (n = 1), 60 min (in vitro [3]; s9, 1 h, 1 μM): 38% | microsomal CLint at 1 μM (in vitro [3]; s9, CLint (mL/min/mg protein)): 20.1 µL/min/mg | half-life at 1 μM (in vitro [3]; s9, Half-life (min)): 0.567 h
SMILES: CCCCC/C=C\C/C=C\CCCCCCCC(=O)OCCNC(=O)CCCCCCCCCCCCCCC [Compound I-6]
